Reference: US20110263557A1, “COMPOUNDS AND COMPOSITIONS AS MODULATORS OF GPR119 ACTIVITY” (IRM LLC, priority 2008, published 2011)

Each molecule was assayed against T1, human GPR119 (Homo sapiens, UniProt Q8TDV5) (assay: Cyclic AMP assay in stable cell line (Flp-In-CHO-hGPR119, HTRF)). Settings: Flp-In-CHO-hGPR119 cells, intracellular cAMP by HTRF, 1 mM IBMX, 37° C. for 30 minutes; read-out: CHO-GPR119-HTRF (3158).
T1 construct: expressed in transfected cells
T1 sequence (Q8TDV5 1-335): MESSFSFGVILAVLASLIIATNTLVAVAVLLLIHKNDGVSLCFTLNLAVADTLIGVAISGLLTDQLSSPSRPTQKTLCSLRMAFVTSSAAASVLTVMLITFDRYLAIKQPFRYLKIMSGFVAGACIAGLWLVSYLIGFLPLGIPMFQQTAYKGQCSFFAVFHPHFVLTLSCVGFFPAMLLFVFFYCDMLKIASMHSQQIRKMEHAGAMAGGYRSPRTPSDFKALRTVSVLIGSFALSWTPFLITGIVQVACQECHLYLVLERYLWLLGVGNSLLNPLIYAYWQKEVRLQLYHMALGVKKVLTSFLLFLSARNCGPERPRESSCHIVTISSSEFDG
Format: cell-based
Description: Flp-In-CHO cells (Invitrogen, Cat.#R758-07) are maintained in Ham's F12 medium supplemented with 10% fetal bovine serum, 1% antibiotic mixture and 2 mM L-glutamine. The cells are transfected with a DNA mixture containing human GPR119 in pcDNA5/FRT vector and the pOG44 vector (1:9) using Fugene6 (Roche), according to the manufacturer's instruction. After 48 hours, the medium is changed to medium supplemented with 400 μg/ml hygromycin B to initiate the selection of stably transfected cells.
To test the activity of compounds of the invention, Flp-In-CHO-hGPR119 cells are harvested and resuspended in DMEM plus 3% lipid-depleted fetal bovine serum. Forth μl of cells are plated in 384 well plates at a density of 15,000 cells/well. IBMX (3-isobutyl-1-methyl-xanthine) is added to the cells to a final concentration of 1 mM, followed by the addition of 500 nl of the compound to be tested. The cells are incubated at 37° C. for 30 minutes. Equal volume (20 μl) of the HTRF reagents, anti-cAMP-Cryptate and cAMP-XL665, are added to the cells. The plates are incubated at room temperature for 1 hour and read on a HTRF reader according to the manufacturer's instruction.
Compounds of Formula I, in free form or in pharmaceutically acceptable salt form, produced a concentration-dependent increase in intracellular cAMP level. […] For example, the following tables show some EC50 data for a representative sample of compounds of the invention: […]

Row | Structure (SMILES) | EC50 [nM]
1 | CCc1cnc(N2CCC(Oc3ccc(CN4CCN(S(C)(=O)=O)CC4)cc3)CC2)nc1 [Example A1] | 56
2 | CCc1cnc(N2CCC(Oc3ccc(CN4CCN(S(C)(=O)=O)CC4)c(C)c3)CC2)nc1 [Example A2, 5-ethyl-2-(4-(3-methyl-4-((4-(methylsulfonyl)piperazin-1-yl)methyl)phenoxy)piperidin-1-yl)pyrimidine] | 203
3 | CCc1cnc(N2CCC(Oc3ccc(CN4CCN(S(C)(=O)=O)CC4)cc3F)CC2)nc1 [Example A6, 5-ethyl-2-(4-(2-fluoro-4-((4-(methylsulfonyl)piperazin-1-yl)methyl)phenoxy)piperidin-1-yl)pyrimidine] | 20
4 | CCc1cnc(N2CCC(Oc3ccc(CN4CCN(S(C)(=O)=O)CC4)cc3Br)CC2)nc1 [Example A8, 2-(4-(2-bromo-4-((4-(methylsulfonyl)piperazin-1-yl)methyl)phenoxy)piperidin-1-yl)-5-ethylpyrimidine] | 5
5 | CCc1cnc(N2CCC(Oc3ccc(CN4CCN(S(C)(=O)=O)CC4)nc3)CC2)nc1 [Example A13, 5-ethyl-2-(4-(6-((4-(methylsulfonyl)piperazin-1-yl)methyl)pyridin-3-yloxy)piperidin-1-yl)pyrimidine] | 867
6 | CCc1cnc(N2CCC(Oc3ccc(CN4CCN(S(C)(=O)=O)CC4)cc3C(=O)OC)CC2)nc1 [Example A14, methyl 2-(1-(5-ethylpyrimidin-2-yl)piperidin-4-yloxy)-5-((4-(methylsulfonyl)piperazin-1-yl)methyl)benzoate] | 313
7 | CC1(OC(=O)N2CCC(Oc3ccc(CN4CCN(S(C)(=O)=O)CC4)cc3)CC2)CC1 [Example B2, 1-Methylcyclopropyl 4-(4-((4-(methylsulfonyl)piperazin-1-yl)methyl)phenoxy)piperidine-1-carboxylate] | 127
8 | CC1(OC(=O)N2CCC(Oc3ccc(CN4CCN(S(C)(=O)=O)CC4)cc3Cl)CC2)CC1 [Example B3, 1-Methylcyclopropyl 4-(2-chloro-4-((4-(methylsulfonyl)piperazin-1-yl)methyl)phenoxy)piperidine-1-carboxylate] | 22
9 | CS(=O)(=O)N1CCN(Cc2ccc(OC3CCN(c4ccc(C(F)(F)F)cn4)CC3)cc2)CC1 [Example B6, 1-(methylsulfonyl)-4-(4-(1-(5-(trifluoromethyl)pyridin-2-yl)piperidin-4-yloxy)benzyl)piperazine] | 220
10 | CC(C)c1noc(N2CCC(Oc3ccc(CN4CCN(S(C)(=O)=O)CC4)cc3Cl)CC2)n1 [Example B11, 5-(4-(2-chloro-4-((4-(methylsulfonyl)piperazin-1-yl)methyl)phenoxy)piperidin-1-yl)-3-isopropyl-1,2,4-oxadiazole] | 13
11 | CN(C)C(=O)c1cnc(N2CCC(Oc3ccc(CN4CCN(S(C)(=O)=O)CC4)cc3Cl)CC2)nc1 [Example B13, 2-(4-(2-chloro-4-((4-(methylsulfonyl)piperazin-1-yl)methyl)phenoxy)piperidin-1-yl)-N,N-dimethylpyrimidine-5-carboxamide] | 465
12 | Cn1nnc(-c2cnc(N3CCC(Oc4ccc(CN5CCN(S(C)(=O)=O)CC5)cc4Cl)CC3)nc2)n1 [Example B17, 2-(4-(2-Chloro-4-((4-(methylsulfonyl)piperazin-1-yl)methyl)phenoxy)piperidin-1-yl)-5-(2-methyl-2H-tetrazol-5-yl)pyrimidine] | 9

Continued, values first:

Row | EC50 [nM] | Structure (SMILES)
13 | 187 | CCc1cnc(N2CCC(Oc3ccc(CN4CCN(S(C)(=O)=O)CC4)cc3CCCOC)CC2)nc1 [Example C2]
14 | 44 | CCc1cnc(N2CCC(Oc3ccc(CN4CCN(S(C)(=O)=O)CC4)cc3-c3ccn[nH]3)CC2)nc1 [Example C5, 5-ethyl-2-(4-(4-((4-(methylsulfonyl)piperazin-1-yl)methyl)-2-(1H-pyrazol-5-yl)phenoxy)piperidin-1-yl)pyrimidine]
15 | 136 | CCc1cnc(N2CCC(Oc3ccc(CN4CCN(S(C)(=O)=O)CC4)cc3NCCOC)CC2)nc1 [Example C9, 2-(1-(5-Ethylpyrimidin-2-yl)piperidin-4-yloxy)-N-(2-methoxyethyl)-5-((4-(methylsulfonyl)piperazin-1-yl)methyl)aniline]
16 | 8 | CCc1cnc(N2CCC(Oc3ccc(CN4CCN(S(=O)(=O)CCCO)CC4)cc3Cl)CC2)nc1 [Example D1, 3-(4-(3-Chloro-4-(1-(5-ethylpyrimidin-2-yl)piperidin-4-yloxy)benzyl)piperazin-1-ylsulfonyl)propan-1-ol]
17 | 3 | CCc1cnc(N2CCC(Oc3ccc(CC4CCN(S(C)(=O)=O)CC4)cc3Cl)CC2)nc1 [Example E2, 2-(4-(2-Chloro-4-((1-(methylsulfonyl)piperidin-4-yl)methyl)phenoxy)piperidin-1-yl)-5-ethylpyrimidine]
18 | 812 | CCc1cnc(N2CCC(Oc3ccc(CN4CCN(S(C)(=O)=O)CC4=O)cc3Cl)CC2)nc1 [Example E4, 1-(3-Chloro-4-(1-(5-ethylpyrimidin-2-yl)piperidin-4-yloxy)benzyl)-4-(methylsulfonyl)piperazin-2-one]
19 | 2680 | CCc1cnc(N2CCC(Oc3ccc(CN4CCC(c5nnn(C)n5)CC4)cc3Cl)CC2)nc1 [Example E12, 2-(4-(2-chloro-4-((4-(2-methyl-2H-tetrazol-5-yl)piperidin-1-yl)methyl)phenoxy)piperidin-1-yl)-5-ethylpyrimidine]
20 | 114 | CCc1cnc(N2CCC(Oc3ccc(CN4CC(N(C)S(C)(=O)=O)C4)cc3Cl)CC2)nc1 [Example E15, N-(1-(3-Chloro-4-(1-(5-ethylpyrimidin-2-yl)piperidin-4-yloxy)benzyl)azetidin-3-yl)-N-methylmethanesulfonamide]
